The values below come from patent publication US7994326B2 (Northwestern University, priority 2003, dated 2011).

Read-outs that look alike come from different tables or passages of the source.

Common to all, as to type: biochemical
Experiment [1] addresses T1, bovine eNOS (Bos taurus, UniProt P29473).
T1 construct: made in house; host or cells: E. coli (plasmid Bov-eNOSpCW)
Kind of experiment: NOS enzyme inhibitory assay (hemoglobin capture), eNOS. Conditions: for IC50: bovine eNOS, 10 μM L-arginine, * = no inhibition observed up to the concentration listed.

The target of experiment [2] is T2, murine iNOS (Mus musculus, UniProt P29477).
T2 construct: made in house; host or cells: E. coli (plasmid pCWiNOS)
Briefly: NOS enzyme inhibitory assay (hemoglobin capture), iNOS. Conditions: for IC50: murine iNOS, 10 μM L-arginine. The method in brief: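 Recombinant murine iNOS, overexpressed in E. coli from plasmid pCWiNOS (induced with 1 mM IPTG) and purified on a 2′,5′-ADP-Sepharose 4B column with elution by 10 mM 2′(3′)-AMP, 10 μM BH4 and 0.3 M NaCl, was used to test inhibitors. Nitric oxide production was followed with the hemoglobin capture assay, and IC50 values were determined.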

Experiment [3] deals with T3, rat nNOS (Rattus norvegicus, UniProt P29476).
T3 construct: made in house; host or cells: E. coli (plasmid pCWnNOS)
Kind of experiment: NOS enzyme inhibitory assay (hemoglobin capture), nNOS. Conditions: for IC50: rat nNOS, 10 μM L-arginine. The method in brief: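 Recombinant rat nNOS expressed in E. coli and purified by calmodulin-Sepharose and 2′,5′-ADP-Sepharose chromatography. NO production followed by hemoglobin capture; inhibition expressed as Ki, selectivity as ratio of Ki values.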

The mark [4] stands for this setting: Table 1a, apparent Ki calculated from IC50, Km 1.7 μM, read-out: calc. Ki eNOS.
Where [5] appears, read: Table 1a, apparent Ki calculated from IC50, Km […], read-out: calc. Ki iNOS.
The mark [6] stands for this setting: Table 1a, apparent Ki calculated from IC50, Km […], read-out: calc. Ki nNOS.
Setting [7] is: Table 1b, ratio of Ki values eNOS/nNOS.
[8] abbreviates: Table 1b, ratio of Ki values iNOS/nNOS.

In the case of `Cl.Cl.Nc1cccc(CC2CNCC2O)n1` (racemic) [Compound P-11], the Ki in experiment [1] (setting [4]) is 341 µM; in experiment [2] (setting [5]) it was 25.2 µM; in experiment [3] (setting [6]) it was 6.94 µM. Also, the values for the IC50 in experiment [1] (Table 1a), in experiment [2] (Table 1a) and in experiment [3] (Table 1a) were 2350 µM, 56 µM and 60.3 µM, respectively. In addition, the Selectivity n/e in experiment [3] (Table 1a, Ki(eNOS)/Ki(nNOS)) worked out at 49.11. Moreover, the Selectivity n/i in experiment [3] (Table 1a, Ki(iNOS)/Ki(nNOS)) was found to be 3.64.
For `Nc1cccc(CC2CNCC2NCC(N)Cc2ccccc2)n1` (racemic) [Compound P-17], the Ki is greater than 1450 µM in experiment [1] (setting [4]), 417 µM in experiment [2] (setting [5]) and 20.6 µM in experiment [3] (setting [6]). For the same compound, the IC50 in experiment [1] (Table 1a) is greater than 10000 µM; in experiment [2] (Table 1a), 919 µM; in experiment [3] (Table 1a) it was 179 µM. In experiment [3] (Table 1a, Ki(eNOS)/Ki(nNOS)), this compound registered a Selectivity n/e greater than 70.64. This compound also had a Selectivity n/i in experiment [3] (Table 1a, Ki(iNOS)/Ki(nNOS)) of 20.25.
On to `Cc1cc(N)nc(C[C@H]2CNC[C@@H]2NCCNCCc2ccc(F)cc2)c1.Cl.Cl.Cl.Cl` (racemic) [Compound P-72], for which the Ki came to 44.1 µM in experiment [1] (Table 1b, read-out: Ki eNOS); 22.6 µM in experiment [2] (Table 1b, read-out: Ki iNOS); 0.119 µM in experiment [3] (Table 1b, read-out: Ki nNOS). The Selectivity n/e in experiment [3] (setting [7]) turned out to be 370.5. The Selectivity n/i in experiment [3] (setting [8]) came out at 189.9.
On to `Cc1cc(N)nc(C[C@H]2CNC[C@H]2NCCNCc2ccc(Cl)cc2Cl)c1.Cl.Cl.Cl.Cl` (racemic) [Compound P-61], for which the Ki worked out at 29.9 µM in experiment [1] (Table 1b, read-out: Ki eNOS); 7.7 µM in experiment [2] (Table 1b, read-out: Ki iNOS); 0.11 µM in experiment [3] (Table 1b, read-out: Ki nNOS). The Selectivity n/e in experiment [3] (setting [7]) stood at 272. In addition, in experiment [3] (setting [8]), the Selectivity n/i is given as 70.
On to `Cc1cc(N)nc(C[C@H]2CNC[C@H]2NC(=O)CNCCc2cccc(F)c2)c1.Cl.Cl.Cl` (racemic) [Compound P-77, (±)-N-{cis-4-[(6-amino-4-methylpyridin-2-yl)methyl]pyrrolidin-3-yl}-2-(3-fluorophenethylamino)acetamide trihydrochloride], for which the Ki in experiment [1] (Table 1b, read-out: Ki eNOS) is 26 µM; in experiment [2] (Table 1b, read-out: Ki iNOS), 1.4 µM; in experiment [3] (Table 1b, read-out: Ki nNOS), 0.053 µM. In addition, in experiment [3] (setting [7]), the Selectivity n/e is on record as 500. Also, the Selectivity n/i in experiment [3] (setting [8]) turned out to be 26.4.
For `Nc1cccc(CC2CNCC2NC2CCNC2)n1` (racemic) [Compound P-34], the figures for the Ki in experiment [1] (setting [4]), in experiment [2] (setting [5]) and in experiment [3] (setting [6]) were 243 µM, 174 µM and 1.26 µM, respectively. Further, the IC50 in experiment [1] (Table 1a) amounted to 1670 µM; in experiment [2] (Table 1a), 384 µM; in experiment [3] (Table 1a), 11 µM. In addition, the Selectivity n/e in experiment [3] (Table 1a, Ki(eNOS)/Ki(nNOS)) came out at 192.54. This compound also gave a Selectivity n/i in experiment [3] (Table 1a, Ki(iNOS)/Ki(nNOS)) of 138.06.

Usually IC50 stands for the point on the concentration scale where inhibition reaches its midpoint. The low end stands for greater potency in that assay, the high end for weaker potency in that assay.
